Values quoted from earlier work, collected in patent US20220354783A1, “INJECTABLE PROLONGED-ACTION COMPOSITIONS FOR USE IN THE TREATMENT OF NAIL DISEASE AND/OR FOR PROMOTING NAIL GROWTH” (EDIX-O SARL, priority 2018, published 2022).

Tested on: nail diseases
Conditions: oral forms, 250 mg per day for 6 to 12 weeks

Compound: CN(C/C=C/C#CC(C)(C)C)Cc1cccc2ccccc12 [terbinafine]
- total healing in clinical studies: 38%
